From PubChem BioAssay AID1333 (NMMLSC, 2008)

Target: Cell division control protein 42 homolog (Homo sapiens) (UniProt P60953)
Test: inhibition of fluorescent GTP binding to constitutively active Cdc42 – biochemical, multiplex bead flow cytometry, Bodipy-FL-GTP, dose response (AID 1333);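 also: potency of compounds that compete with and reduce fluorescent GTP binding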
Conditions: bead-based flow cytometry

SMILES | EC50
O=C(O)c1ccccc1Sc1ncnc2sc3c(c12)CCC3 | 1.84 µM
COc1ccc(C2CC(c3ccccc3)=NN2c2ccc(S(N)(=O)=O)cc2)cc1 (configuration not stated) | 8.04 µM
O=C(Nc1nnc(-c2ccc3c(c2)OCCO3)o1)c1ccc(Cc2ccccc2)cc1 | 2.79 µM
Cc1cc(C)c(C)c(C(=O)c2ccccc2C(=O)O)c1C | 4.95 µM
O=C(C#Cc1ccc(F)cc1)c1ccc([N+](=O)[O-])cc1 | 3.55 µM
O=C(NCc1ccc2c(c1)OCO2)c1ccc(CSCc2cccc(Cl)c2)o1 | 20.6 µM
O=C(C#Cc1ccccc1)c1cccc([N+](=O)[O-])c1 | 13.5 µM
Cc1cc(C(=O)Cn2nc(C(=O)O)c3ccccc3c2=O)c(C)n1-c1ccc(OC(F)F)cc1 | 4.89 µM
Cc1ccc(SC(CC(=O)c2ccc(C(C)(C)C)cc2)C(=O)O)cc1 (configuration not stated) | 5.11 µM
CCc1ccc(NS(=O)(=O)c2ccc3[nH]cc(C(=O)N4CCc5ccccc54)c(=O)c3c2)cc1 | 50.1 µM
Cc1cccc2cc(CN(Cc3cccs3)C(c3nnnn3C3CCCC3)C(C)C)c(=O)[nH]c12 (configuration not stated) | 1.63 µM
CCOC(=O)c1cc([N+](=O)[O-])c([N+](=O)[O-])cc1NC(C)=O | 7.18 µM
Cc1ccc(-n2c(-c3cnccn3)n[nH]c2=S)c(Br)c1 | 53.8 µM
Cc1ccc(C)c(OCCn2cc(C(=O)O)c3ccccc32)c1 | 0.358 µM
NS(=O)(=O)c1ccc(N2N=C(c3ccccc3)CC2c2cccc(F)c2)cc1 (configuration not stated) | 9.59 µM
O=C(O)c1cc(Sc2ccc(Cl)cc2)nc2ccccc12 | 18.7 µM
O=C(Nc1ccccc1)C1=C(c2ccccc2)S(=O)(=O)CCS1(=O)=O | 43.9 µM
CC(=O)c1ccc(C#CC(=O)c2ccc([N+](=O)[O-])cc2)cc1 | 0.989 µM
N#Cc1c(-c2ccccc2)nc(SCC(=O)Nc2ccccc2)[nH]c1=O | 1.66 µM

SMILES | EC50
COc1cccc(NC(=O)COC(=O)/C=C/c2ccc(Cl)cc2Cl)c1 | 3.53 µM
OC(CNCCc1ccc(Cl)cc1)COc1ccc2ccccc2c1 (configuration not stated) | 11.3 µM
Cc1nn(Cc2ccccc2)c(Cl)c1C(=O)O | 13.9 µM
CCCc1nc2c(=O)n(C)c(=O)nc-2n(C)n1 | 1.77 µM
CCCN1C(=O)/C(=C/C=C2\N(CC)c3ccccc3C2(C)C)SC1=S | 5.59 µM
CS(=O)(=O)c1ccc(C(=O)OCC(=O)NC(=O)C2CCCCC2)cc1[N+](=O)[O-] | 12.9 µM
CC(C)C(NCc1c(Cl)cccc1Cl)C(=O)O (configuration not stated) | 5.85 µM
Cc1nc2c(=O)n(C)c(=O)nc-2n(C)n1 | 1.61 µM
COC(=O)c1cccnc1SCCc1ccccc1 | 24.2 µM
COc1ccc(-c2cc(C#N)nc(N3CCNCC3)n2)cc1 | 27.1 µM
COc1cccc(-n2nnnc2S(C)(=O)=O)c1 | 15.4 µM
CCOc1ccc(/C=C2\SC(N3CCc4ccccc4C3)=NC2=O)cc1 | 16.5 µM
O=C(C#CC1CCCCC1)c1ccc([N+](=O)[O-])cc1 | 45.9 µM
O=C(NCc1cccs1)c1cccnc1C(=O)O | 4.31 µM
CCn1nc(/C=C/c2ccccc2)nc2c(=O)n(C)c(=O)nc1-2 | 1.44 µM
O=C(O)c1ccccc1NCCc1ccc(Cl)cc1 | 0.885 µM
O=C(O)/C=C/c1cn(Cc2ccccc2)nc1-c1cccs1 | 2.18 µM
Cc1ccc(NC(=O)C2=C(c3ccccc3)S(=O)(=O)CCS2(=O)=O)cc1 | 58.7 µM
